Results published in patent publication US20040018515A1, “Compositions selective for adenosine diphosphate and methods of using same” (priority 2002, published 2004).
One block for each molecule: values may come before it.

Experiments:
Type in all cases: biochemical
[1] = tested on: ppERK; assay: Minimized ADP aptamer F01-based kinase SPA; parameters: Initial Rate: unit not given here; details: for inhibition of ppERK activity (decreased signal in the ADP SPA): non-biotinylated minimized ADP aptamer on capture probe, FIG. 44-46
Description: An ADP aptamer will concentrate the tritiated ADP released by kinase on the surface of the flash plate and generate a signal detectable in a Topcount scintillation counter. For the study presented, minimized ADP aptamer (JD37.98A) (FIG. 42, SEQ ID NO: 1 19) was directly 3′-biotinylated and immobilized onto NEN streptavidin flashplates. Specifically, select assay wells were incubated with 5 pmol of JD37.98A directly 3′-biotinylated aptamer in 25 μl of PBS Buffer:BupH (0.05% tRNA, 0.025% Tween 20) with shaking at 650 RPM for 30 min. Unbound biotinylated aptamer probe was rinsed from the plate with three 1×PBS washes and dried as previously described. In following experiments the production of ^3H-ADP from ^3H-ATP was detected from ppERK using streptavidin coated flash plate wells that were incubated with 60 pmol of MK08.112A biotinylated capture probe in 30 μl of PBS Buffer:BupH (0.05% tRNA, 0.025% Tween 20) for 15 min with shaking at 650 RPM. Unbound probe was removed from the plate with three 1×PBS washes and blotted dry as described above. JD37.98A (150 pmol; not biotinylated) minimized ADP aptamer transcribed with capture probe sequence was added to select wells in 30 μl 1×PBS and incubated for 30 min with shaking at shaking at 650 RPM, Unbound probe was removed with three PBS washes and the plates were blotted dry as described above. Kinase reactions were carried out in a 30 μl final sample volume as follows. Stock 15 nM ppERK enzyme solution was prepared in selection buffer and incubated for 10 min at room temperature. Kinase test reactions were initiated by adding 1 μl test sample, e.g., inhibitor, to 14 μl selection buffer containing 1 mM DTT, […], and 2.7 μM ^3H-ATP and then combining this mixture with an equal volume of 15 nM ppERK enzyme solution. Kinase test reaction was immediately transferred to the appropriate test well and the reaction monitored on a TopCount, ^3H SPA scintillation counter over 900 min.

[2] = tested on: ppERK; assay: 96-well high throughput screening (HTS) ppERK kinase assay
Description: A 96-well high throughput screening (HTS) ppERK kinase assay was constructed using the ADP F01 aptamer in an SPA. […] This HTS assay was used to assess the relative inhibitory activity of 100 test compounds at 10 μM concentration (FIG. 37). This HTS assay was performed three times (FIGS. 37A, 37B and 37C).

[3] = tested on: ppERK; assay: ADP aptamer F01-based kinase SPA; details: ADP SPA with ADP F01 aptamer; 3H-ATP and MBP; FIG. 34, 35
From the text: An ADP aptamer will concentrate the tritiated ADP released by kinase on the surface of the flash plate and generate a scintillation proximity signal detectable in a Topcount instrument.

[4] = Concentration 0.05 (unit not given)
[5] = Concentration 0.1 (unit not given)
[6] = Concentration 0.5 (unit not given)
[7] = Concentration 2.5 (unit not given)
[8] = Concentration 5 (unit not given)
[9] = FIG. 37A, test compounds at 10 μM, 40 nM ppERK, 1.35 μM 3H-ATP, 10 μM MBP
[10] = Concentration 1.8 (unit not given)
[11] = Concentration 3.6 (unit not given)
[12] = Concentration 18 (unit not given)
[13] = Concentration 90 (unit not given)
[14] = Concentration 180 (unit not given)
[15] = Concentration 0.2 (unit not given)
[16] = Concentration 1 (unit not given)
[17] = Concentration 10 (unit not given)

20% Reacted Time [1, 4]: 57.8 min | Initial Rate [1, 4]: 46.949 | Saturation Time [1, 4]: 289 min | 20% Reacted Time [1, 5]: 59.6 min | Initial Rate [1, 5]: 48.324 | Saturation Time [1, 5]: 298 min | 20% Reacted Time [1, 6]: 59.6 min | Initial Rate [1, 6]: 36.486 | Saturation Time [1, 6]: 298 min | 20% Reacted Time [1, 7]: 83 min | Initial Rate [1, 7]: 19.275 | Saturation Time [1, 7]: 415 min | 20% Reacted Time [1, 8]: 113.6 min | Initial Rate [1, 8]: 10.772 | Saturation Time [1, 8]: 568 min | inhibition of ppERK activity (decreased signal in the ADP SPA) [1]: concentration-dependent inhibition | inhibition of ppERK [3]: concentration-dependent inhibition
Compound: Nc1ncnc2c1c(I)cn2[C@@H]1O[C@H](CO)[C@@H](O)[C@H]1O [ITU]
reaction rate in the HTS ppERK assay [2, 9]: significantly decreased the reaction rate

20% Reacted Time [1, 10]: 92 min | Initial Rate [1, 10]: 23.883 | Saturation Time [1, 10]: 460 min | 20% Reacted Time [1, 11]: 101 min | Initial Rate [1, 11]: 20.427 | Saturation Time [1, 11]: 505 min | 20% Reacted Time [1, 12]: 117.2 min | Initial Rate [1, 12]: 4.716 | Saturation Time [1, 12]: 586 min | 20% Reacted Time [1, 13]: 128 min | Initial Rate [1, 13]: 2.8722 | Saturation Time [1, 13]: 640 min | 20% Reacted Time [1, 14]: 180 min | Initial Rate [1, 14]: 2.3262 | Saturation Time [1, 14]: 900 min | inhibition of ppERK activity (decreased signal in the ADP SPA) [1]: concentration-dependent inhibition | inhibition of ppERK [3]: concentration-dependent inhibition
Compound: Nc1nccc(-c2c(-c3ccc(F)cc3)ncn2C2CCNCC2)n1 [SB220025]

Compound: CN[C@@H]1C[C@H]2O[C@@](C)([C@@H]1OC)n1c3ccccc3c3c4c(c5c6ccccc6n2c5c31)C(=O)NC4 [staurosporine]
20% Reacted Time [1, 5]: 52.4 min | Initial Rate [1, 5]: 45.419 | Saturation Time [1, 5]: 262 min | 20% Reacted Time [1, 15]: 70.4 min | Initial Rate [1, 15]: 40.907 | Saturation Time [1, 15]: 352 min | 20% Reacted Time [1, 16]: 52.4 min | Initial Rate [1, 16]: 23.708 | Saturation Time [1, 16]: 262 min | 20% Reacted Time [1, 8]: 110 min | Initial Rate [1, 8]: 10.855 | Saturation Time [1, 8]: 550 min | 20% Reacted Time [1, 17]: 110 min | Initial Rate [1, 17]: 5.9375 | Saturation Time [1, 17]: 550 min | reaction rate in the HTS ppERK assay [2, 9]: significantly decreased the reaction rate | reaction rate in the HTS ppERK assay ([2]; FIG. 37B (ADP-HH screening)): significantly decreased the reaction rate | reaction rate in the HTS ppERK assay ([2]; FIG. 37C (ADP-SPA screening (2nd))): significantly decreased the reaction rate
